Where a name gives a salt, the structure may show the parent alone.
Legend:
[1] = target: GSK-3β (Homo sapiens, UniProt P49841); assay: biochemical; settings: for inhibition at 10 µM: read-out: Percent of enzyme inhibition at 10 μM of inhibitor concentration
Method: We evaluated the pharmacological properties of the compounds in vitro against GSK-3β using the GSK-3β Kinase Enzyme System followed by ADP-Glo bioluminescent assay.[50] The principle of the assay is to determine the amount of ADP formed from ATP in the kinase reaction. […] Additionally, compounds 11 and 36 in complex with GSK-3β were analyzed by the proteins’ melting temperature determination using Thermal Shift Assay (see Figure S1 in the SI).
The inhibitory activities of the tested compounds against the GSK-3β human recombinant kinase were measured using Promega’s GSK-3β Kinase Enzyme System (Promega; Madison, WI, USA), according to the provided manufacturer’s instruction, using the low-volume white polystyrene 384-well plates. The ADP-Glo Assay (Promega; Madison, WI, USA) was used for bioluminescent detection of the kinase activity. Tested compounds were prepared as 1 mM stock solutions in DMSO and diluted with the Kinase Assay Buffer before use (40 mM Tris, pH 7.5, enriched with 50 μM dithiothreitol; DTT) to obtain the desired compounds’ concentrations. The kinase enzyme, GSK-3β-substrate (derived from human muscle glycogen synthase 1), and ATP were also diluted in the assay buffer before use. At first, GSK-3β (10 ng per well) was incubated with the tested sample (10 μM in well) for 5 min. In the case of blank wells, the DMSO solution (1% in well) was used instead of the target samples’ solutions. After the incubation period, ATP (25 μM in well) and GSK-3β-substrate (0.2 μg/μL in well) were added to start the enzymatic reaction. The reaction mixture was kept at room temperature for 1 h, followed by the addition of the ADP-Glo reagent, to terminate the kinase reaction and deplete any remaining ATP. After the following 40 min—a second reagent (Kinase Detection Reagent) was applied to convert the obtained ADP to ATP and to generate light from the newly synthesized ATP using a luciferase/luciferin reaction. The mixture was kept for another 30 min at room temperature, then the luminescence was measured. Based on equation 100 – (S/B) × 100 (where S and B were the respective enzyme activities with and without the tested sample, respectively) the percent of inhibition of GSK-3β for each compound was calculated. […] Calculations were made using nonlinear regression (GraphPad Prism 9; GraphPad Software, San Diego, CA, USA) by plotting the residual enzyme activities against the applied inhibitor concentration. […] Each data point was collected in triplicate.

[2] = Cytotoxicity in BV-2 cells (PrestoBlue); settings: mouse, BV-2 microglial cells
Method: (§1) The compounds were tested at 5 concentrations (0.1, 1, 10, 50, and 100 μM).
Mouse microglial cells (BV-2) were a generous gift from Professor Bozena Kaminska-Kaczmarek of the Laboratory of Molecular Neurobiology, Neurobiology Center, Nencki Institute of Experimental Biology, Polish Academy of Sciences, Warsaw, Poland. Cells were cultured in Dulbecco’s modified Eagle’s Medium-high glucose (DMEM, Glutamax Thermo Fisher) supplemented with 10% heat-inactivated fetal bovine serum (Thermo Fisher), 100 IU/mL penicillin (Merck) and 100 μg/mL streptomycin (Merck). Cells were cultured in flasks (area 175 cm^2, Nunc), and incubated at 37 °C, 5% CO2. To evaluate the level of NO, IL-6, and TNF-α and the effectiveness of the compounds tested, BV-2 microglia cells were cultured in a 96-well culture plate (5 × 10^4 cells per well, Falcon). For the measurement of cell viability and cell membrane damage, cells were placed in a 96-well culture plate (2 × 10^4 cells per well, Falcon). Before the tests, cells were grown for 24 h in the incubator (37 °C, 5% CO2).
(§2) Cell viability was evaluated using the PrestoBlue reagent (ThermoFisher), according to the manufacturer’s procedures.[87] Following 24 h of incubation with the tested molecule, PrestoBlue reagent was added to a microplate well in an amount equal to one-tenth of the remaining medium volume. The resulting mixture was incubated for 15 min at 37 °C, and the fluorescence intensity (EX 530 nm; EM 580 nm) was measured in the plate reader POLARstar Omega, (BMG Labtech).

[3] = system: HT-22 cells; assay: Cytotoxicity in HT-22 cells (PrestoBlue); settings: whole range of concentrations 0.1–100 μM
Method: as §1
(§3) Mouse Hippocampal Neuronal Cell Line (HT-22) was a generous gift from Dr Bartosz Pomierny of the Department of Biochemical Toxicology, Jagiellonian University Medical College, Krakow, Poland. Cells were cultured in Dulbecco’s modified Eagle’s Medium—high glucose (DMEM, Glutamax Thermo Fisher) supplemented with 10% heat-inactivated fetal bovine serum (Thermo Fisher), 100 IU/mL penicillin (Merck) and 100 μg/mL streptomycin (Merck). Cells were cultured in flasks (area 175 cm^2, Nunc), and incubated at 37 °C, 5% CO2. For the measurement of cell viability and neuroprotective effect against okadaic acid cells were placed in a 96-well culture plate (2 × 10^4 cells per well, Falcon). Before the tests, cells were grown for 24 h in the incubator (37 °C, 5% CO2).
as §2

[4] = Cytotoxicity in HT-22 cells (PrestoBlue); settings: mouse, HT-22 hippocampal neuronal cells
Method: as §1, §3, §2

[5] = system: BV-2 cell line; assay: NO release in LPS-treated BV-2 cells (DAN fluorometric assay); format: cell-based, mouse; settings: compound 0.1, 1, 10 μM; LPS 100 ng/mL
Method: Cell viability was determined by Presto Blue assay after 24 h. (B) Effect of compounds 11, 34, and 36 (0.1, 1, 10 μM) on NO-release (%) in LPS-treated (100 ng/mL) BV-2 cell line. NO-release was measured using a fluorometric assay with 2,3-diaminonaphthalene (DAN). (C, D) Effects of compounds 11 and 36 (0.1, 1, 10 μM) on IL-6 and TNF-α release in LPS-treated (100 ng/mL) BV-2 cell line. The IL-6 and TNF-α levels were measured using LANCE Ultra TR-FRET Detection Kit (PerkinElmer). Statistical analysis was performed using GraphPad Prism 9.0.0. All values are expressed as mean with SD. Differences among groups were evaluated by one-way ANOVA followed by posthoc analysis (Dunnett’s multiple comparison tests) vs. control group (LPS on BV-2 cells and okadaic acid on HT-22 cells) and were considered statistically significant if p < 0.05 (*p < 0.05, **p < 0.01, ***p < 0.001, and ****p < 0.0001).
An important role in the pathogenesis of AD has been attributed to neuroinflammation resulting from the activation of astrocytes and microglial cells.[55] These processes lead to increased production of proinflammatory cytokines such as TNF-α or IL-6 that activate processes, e.g., tau hyperphosphorylation, causing injury and cell death.[56] A standard model of neuroinflammation is based on lipopolysaccharide-stimulated BV-2 microglial cells. In this study, we used this model to evaluate the anti-inflammatory properties of compounds 11, 34, and 36.[57] Our evaluation focused on monitoring the levels of key inflammatory markers, including nitric oxide (NO, Figure 6B) and cytokines, TNF-α and IL-6 (Figure 6C,D).
The cells were pretreated with tested compounds for 1 h. […]
The NO level in the culture supernatants was measured using 2,3-diaminonaphthalene (DAN) reagent according to the method of Nussler et al.[88] After 15 min of incubation at room temperature, the fluorescence intensity (EX 360; EM 440 nm) was measured using a microplate reader POLARstar Omega, (BMG Labtech). The values of nitric oxide were calculated as a percentage of control (maximal response of LPS).

Sequence of GSK-3β (P49841 whole entry): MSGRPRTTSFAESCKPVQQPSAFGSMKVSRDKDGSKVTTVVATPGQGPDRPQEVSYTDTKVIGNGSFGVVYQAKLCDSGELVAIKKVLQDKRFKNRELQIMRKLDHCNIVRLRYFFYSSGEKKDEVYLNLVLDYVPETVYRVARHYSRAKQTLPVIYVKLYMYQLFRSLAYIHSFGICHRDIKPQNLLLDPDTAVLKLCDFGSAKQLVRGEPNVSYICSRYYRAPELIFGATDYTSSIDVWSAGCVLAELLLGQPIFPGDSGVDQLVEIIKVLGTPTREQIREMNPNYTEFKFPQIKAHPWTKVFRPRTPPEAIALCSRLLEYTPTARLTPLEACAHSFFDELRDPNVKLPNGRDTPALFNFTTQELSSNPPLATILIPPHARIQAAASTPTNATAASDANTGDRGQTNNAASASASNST

NCCCC(=O)N1CC=C(c2ccnc(NC(=O)C3CC3)c2)C1 [Compound 13, N-(4-(1-(4-Aminobutanoyl)-2,5-dihydro-1H-pyrrol-3-yl)pyridin-2-yl)cyclopropanecarboxamide Hydrochloride]
IC50 [1]: 5490 ± 363 nM

N#Cc1ccc(-c2ccnc(NC(=O)C3CC3)c2)cc1 [Compound 22, N-(4-(4-Cyanophenyl)pyridin-2-yl)cyclopropanecarboxamide]
IC50 [1]: 1130 ± 37 nM

N#Cc1cccc(-c2ccnc(NC(=O)C3CC3)c2)c1 [Compound 23, N-(4-(3-Cyanophenyl)pyridin-2-yl)cyclopropanecarboxamide]
IC50 [1]: 952 ± 21 nM

N#Cc1ccc(-c2ccnc(NC(=O)C3CC3)c2)s1 [Compound 26, N-(4-(5-Cyanothiophen-2-yl)pyridin-2-yl)cyclopropanecarboxamide]
IC50 [1]: 146 ± 5 nM

CS(=O)(=O)N1CC=C(c2ccnc(NC(=O)C3CC3)c2)C1 [Compound 16, N-(4-(1-(Methylsulfonyl)-2,5-dihydro-1H-pyrrol-3-yl)pyridin-2-yl)cyclopropanecarboxamide]
IC50 [1]: 6200 ± 163 nM

O=C(Nc1cc(-c2ccc(-c3ncon3)nc2)ccn1)C1CC1 [Compound 34, N-(6-(1,2,4-Oxadiazol-3-yl)-[3,4′-bipyridin]-2′-yl)cyclopropanecarboxamide]
IC50 at 24 h [2]: 39200 ± 5200 nM | cell viability in HT-22 cells [3]: No significant decrease in cell viability | IC50 at 24 h [4]: > 100000 nM | impact on NO release [5]: did not show any impact | IC50 [1]: 185 ± 3 nM

O=C(Nc1cc(C2=CCN(C(=O)[C@@H]3CCCN3)C2)ccn1)C1CC1 [Compound 14, N-(4-(1-Prolyl-2,5-dihydro-1H-pyrrol-3-yl)pyridin-2-yl)cyclopropanecarboxamide]
IC50 [1]: 7720 ± 543 nM

O=C(Nc1cc(C2=CCN(S(=O)(=O)C3CCCC3)C2)ccn1)C1CC1 [Compound 18, N-(4-(1-(Cyclopentylsulfonyl)-2,5-dihydro-1H-pyrrol-3-yl)pyridin-2-yl)cyclopropanecarboxamide]
IC50 [1]: 3250 ± 83 nM

O=C(Nc1cc(-c2ccc(-c3ccccc3)s2)ccn1)C1CC1 [Compound 37, N-(4-(5-Phenylthiophen-2-yl)pyridin-2-yl)cyclopropanecarboxamide]
IC50 [1]: 5220 ± 301 nM

O=C(Nc1cc(C2=CCN(C[C@H]3CCCN3)C2)ccn1)C1CC1 [(R)-15, (R)-N-(4-(1-(Pyrrolidin-2-ylmethyl)-2,5-dihydro-1H-pyrrol-3-yl)pyridin-2-yl)cyclopropanecarboxamide hydrochloride]
inhibition at 10 µM [1]: 17.8 ± 1.7%

N#Cc1cc(-c2ccnc(NC(=O)C3CC3)c2)ccn1 [Compound 25, N-(2′-Cyano-[4,4′-bipyridin]-2-yl)cyclopropanecarboxamide]
inhibition at 10 µM [1]: 34.4 ± 2.8%

CCCS(=O)(=O)N1CC=C(c2ccnc(NC(=O)C3CC3)c2)C1 [Compound 17, N-(4-(1-(Propylsulfonyl)-2,5-dihydro-1H-pyrrol-3-yl)pyridin-2-yl)cyclopropanecarboxamide]
IC50 [1]: 9270 ± 467 nM

O=C(Nc1cc(-c2ccc(-c3ncon3)cc2)ccn1)C1CC1 [Compound 32, N-(4-(4-(1,2,4-Oxadiazol-3-yl)phenyl)pyridin-2-yl)cyclopropanecarboxamide]
IC50 [1]: 257 ± 5 nM

O=C(Nc1cc(-c2cccc(-c3ncon3)c2)ccn1)C1CC1 [Compound 33, N-(4-(3-(1,2,4-Oxadiazol-3-yl)phenyl)pyridin-2-yl)cyclopropanecarboxamide]
IC50 [1]: 898 ± 32 nM

N#Cc1ccc(-c2ccnc(NC(=O)C3CC3)c2)cn1 [Compound 24, N-(6-Cyano-[3,4′-bipyridin]-2′-yl)cyclopropanecarboxamide]
IC50 [1]: 212 ± 7 nM

NCCC(=O)N1CC=C(c2ccnc(NC(=O)C3CC3)c2)C1 [Compound 12, N-(4-(1-(3-Aminopropanoyl)-2,5-dihydro-1H-pyrrol-3-yl)pyridin-2-yl)cyclopropanecarboxamide Hydrochloride]
IC50 [1]: 1360 ± 110 nM

CC(=O)N1CC=C(c2ccnc(NC(=O)C3CC3)c2)C1 [Compound 10, N-(4-(1-Acetyl-2,5-dihydro-1H-pyrrol-3-yl)pyridin-2-yl)cyclopropanecarboxamide]
IC50 [1]: 599 ± 11 nM

O=C(Nc1cc(C2=CCN(C[C@@H]3CCCN3)C2)ccn1)C1CC1 [(S)-15, (S)-N-(4-(1-(Pyrrolidin-2-ylmethyl)-2,5-dihydro-1H-pyrrol-3-yl)pyridin-2-yl)cyclopropanecarboxamide Hydrochloride]
IC50 [1]: 11300 ± 1120 nM

NCCS(=O)(=O)N1CC=C(c2ccnc(NC(=O)C3CC3)c2)C1 [Compound 19, N-(4-(1-((2-Aminoethyl)sulfonyl)-2,5-dihydro-1H-pyrrol-3-yl)pyridin-2-yl)cyclopropanecarboxamide Hydrochloride]
IC50 [1]: 1370 ± 44 nM

O=C(Nc1cc(-c2ccnc(-c3ncon3)c2)ccn1)C1CC1 [Compound 35, N-(2′-(1,2,4-Oxadiazol-3-yl)-[4,4′-bipyridin]-2-yl)cyclopropanecarboxamide]
IC50 [1]: 809 ± 28 nM

NCCCS(=O)(=O)N1CC=C(c2ccnc(NC(=O)C3CC3)c2)C1 [Compound 20, N-(4-(1-((3-Aminopropyl)sulfonyl)-2,5-dihydro-1H-pyrrol-3-yl)pyridin-2-yl)cyclopropanecarboxamide Hydrochloride]
IC50 [1]: 9990 ± 406 nM
